The text below walks through data of patent publication US4321384A, “Antihypertensive agents” (American Home Products Corporation, priority 1981, dated 1982).

Test [1] concerns spontaneously hypertensive rats. Put plainly: Systolic blood pressure lowering in spontaneously hypertensive rats. In kind it is in vivo, rat. Here is the method: The in vivo blood pressure lowering ability of the compounds of this invention was established by measuring the systolic pressure of spontaneously hypertensive rats with a Decker Caudal Plethysmograph or similar sensor device. The compound being tested is administered to groups of four rats and their blood pressure is read prior to compound administration and at 1.5 and 4 hours after compound administration. Depending upon the behavior of the compound being tested, the schedule of blood pressure readings and route of administration is modified. Initially the compounds are administered orally but where compound solubility is a factor, the compounds may be administered parenterally (i.e. i.p., i.m., s.c., i.v., etc.) as desired. The compounds of this invention were initially administered orally at a standard testing dose of 50 mg/kg.
The following examples illustrate the preparation of a representative number of compounds of this invention. After each example, the Ca^+2 antagonist activity of the compound is presented in terms of percent relaxation (P.R.) at the stated concentration. Similarly, the antihypertensive activity is reported in terms of millimeters mercury (mmHg) blood pressure (B.P.) reduction at the stated time post 50 mg/kg oral dosing.

In the next test the test system is rabbit aortic strips. Nature of the test: Ca+2 antagonism: relaxation of potassium-contracted rabbit aortic strips. Particulars: Oryctolagus cuniculus; 10^-5 M bath concentration; strips contracted with 100 millimoles potassium ion; read-out: percent relaxation (P.R.). The test is classed as cell-based. Here is the method: After a stable active tension has developed in the strip, as measured by Statham UC-2 force transducers and recorded on an eight channel Beckman Dynograph Polygraphic Recorder, an amount of the antagonist was added to the organ bath to make a 10^-5 molar concentration of antagonist. The […] effect, expressed as percent relaxation, was taken from the mean of at least two experiments. […] A Ca^+2 antagonist producing a 20 percent relaxation of aortic tissue in this test procedure at a 10^-5 molar bath concentration of the antagonist, generally produces a significant reduction in blood pressure when a sufficient amount is given to the spontaneously hypertensive rat. The following examples illustrate the preparation of a representative number of compounds of this invention. After each example, the Ca^+2 antagonist activity of the compound is presented in terms of percent relaxation (P.R.) at the stated concentration. Similarly, the antihypertensive activity is reported in terms of millimeters mercury (mmHg) blood pressure (B.P.) reduction at the stated time post 50 mg/kg oral dosing.

The mark [2] stands for this setting: 1.5 hours post 50 mg/kg oral dosing.
Where [3] appears, read: 4 hours post 50 mg/kg oral dosing.

Turning to `COC(=O)C1=C(C)NC2=C(C(=O)CN(C)C2)C1c1ccccc1[N+](=O)[O-]` (stereo not drawn) [Example 1, 1,4,5,6,7,8-Hexahydro-2,7-dimethyl-4-(2-nitrophenyl)-5-oxo-1,7-naphthyridine-3-carboxylic acid methyl ester], the “blood pressure (B.P.) reduction” value is reported as -27 mmHg in test [1] (setting [2]) and -21 mmHg in test [1] (setting [3]). Moreover, the inhibition at 10 µM in the test with rabbit aortic strips was determined as 14%.

As for `COC(=O)C1=C(C)NC2=C(C(=O)CN(C)C2)C1c1ccccc1C` (stereo not drawn) [Example 2, 1,4,5,6,7,8-Hexahydro-2,7-dimethyl-4-(2-methylphenyl)-5-oxo-1,7-naphthyridine-3-carboxylic acid methyl ester], the results for the “blood pressure (B.P.) reduction” value in test [1] (setting [2]) and in test [1] (setting [3]) were -57 mmHg and -28 mmHg, respectively. The inhibition at 10 µM in the test with rabbit aortic strips was found to be 31%.

`COC(=O)C1=C(C)NC2=C(C(=O)CN(C)C2)C1c1ccccc1C(F)(F)F` (stereo not drawn) [Example 4, 1,4,5,6,7,8-Hexahydro-2,7-dimethyl-5-oxo-4-[2-(trifluoromethyl)-phenyl]-1,7-naphthyridine-3-carboxylic acid methyl ester]: the entries for the “blood pressure (B.P.) reduction” value in test [1] (setting [2]) and in test [1] (setting [3]) were -68 mmHg and -70 mmHg, respectively. In addition, the inhibition at 10 µM in the test with rabbit aortic strips is 48%.

Regarding `COC(=O)C1=C(C)NC2=C(C(=O)CN(C)C2)C1c1cccc([N+](=O)[O-])c1` (stereo not drawn) [Example 6, 1,4,5,6,7,8-Hexahydro-2,7-dimethyl-4-(3-nitrophenyl)-5-oxo-1,7-naphthyridine-3-carboxylic acid methyl ester], the results for the “blood pressure (B.P.) reduction” value in test [1] (setting [2]) and in test [1] (setting [3]) were -85 mmHg and -47 mmHg, respectively. Besides, the inhibition at 10 µM in the test on rabbit aortic strips is 35%.

In the case of `COC(=O)C1=C(C)NC2=C(C(=O)CNC2)C1c1ccccc1C` (stereo not drawn) [Example 7, 1,4,5,6,7,8-Hexahydro-2-methyl-4-(2-methylphenyl)-5-oxo-1,7-naphthyridine-3-carboxylic acid:methyl ester], the “blood pressure (B.P.) reduction” value is listed as -77 mmHg in test [1] (setting [2]) and -64 mmHg in test [1] (setting [3]). Moreover, in the test on rabbit aortic strips, the inhibition at 10 µM was found to be 46%.

On to `COC(=O)C1=C(C)NC2=C(C(=O)CN(C)C2)C1c1ccccc1Cl` (stereo not drawn) [Example 8, 4-(2-chlorophenyl)-1,4,5,6,7,8-Hexahydro-2,7-dimethyl-5-oxo-1,7-naphthyridine-3-carboxylic acid methyl ester], for which the “blood pressure (B.P.) reduction” value in test [1] (setting [2]) is recorded as -54 mmHg; in test [1] (setting [3]), -30 mmHg. In the test with rabbit aortic strips, the inhibition at 10 µM came out at 28.3%.

In the case of `COC(=O)C1=C(C)NC2=C(C(=O)CN(C)C2)C1c1c(Cl)cccc1Cl` (stereo not drawn) [Example 9, 4-(2,6-Dichlorophenyl)-1,4,5,6,7,8-hexahydro-2,7-dimethyl-5-oxo-1,7-naphthyridine-3-carboxylic acid methyl ester], the entries for the “blood pressure (B.P.) reduction” value in test [1] (setting [2]) and in test [1] (setting [3]) were -22 mmHg and -43 mmHg, respectively. Besides, the inhibition at 10 µM with rabbit aortic strips came out at 41.5%.

Regarding `COC(=O)C1=C(C)NC2=C(C(=O)CN(C)C2)C1c1cc(C)ccc1C` (stereo not drawn) [Example 11, 4-(2,5-Dimethylphenyl)-1,4,5,6,7,8-hexahydro-2,7-dimethyl-5-oxo-1,7-naphthyridine-3-carboxylic acid methyl ester], in the test on rabbit aortic strips, the inhibition at 10 µM came out at 22%.

As to `COC(=O)C1=C(C)NC2=C(C(=O)CNC2)C1c1ccccc1C(F)(F)F` (stereo not drawn) [Example 12, 1,4,5,6,7,8-Hexahydro-2-methyl-5-oxo-4-[2-(trifluoromethyl)phenyl]-1,7-naphthyridine-3-carboxylic acid methyl ester], in test [1] (setting [2]), the “blood pressure (B.P.) reduction” value was -88 mmHg. Further, the inhibition at 10 µM with rabbit aortic strips is 89.1%.

Take `COC(=O)C1=C(C)NC2=C(C(=O)CNC2)C1c1cccc(C(F)(F)F)c1` (stereo not drawn) [Example 14, 1,4,5,6,7,8-Hexahydro-2-methyl-5-oxo-4-[3-(trifluoromethyl)phenyl]-1,7-naphthyridine-3-carboxylic acid methyl ester]: the “blood pressure (B.P.) reduction” value in test [1] (setting [2]) was -51 mmHg; in test [1] (setting [3]), -43 mmHg. For the same compound, the inhibition at 10 µM with rabbit aortic strips amounted to 84%.
